Data from ChEMBL document CHEMBL1201862, “PubChem BioAssay data set” (2004).
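Following 48 hours of exposure in 96-well plates, responses at five concentrations were used to interpolate endpoints linearly. GI50: concentration for 50% inhibition of growth.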 The source made the active and inactive calls. Rule as the data show it: active = GI50 up to about 1.1 µM and inactive = higher.

Assays:
Assay in all cases: NCI-60 cell line screen, 48 h
CAKI-1 = system: CAKI-1
HCC 2998 = system: HCC 2998
HCT-15 = system: HCT-15
HL-60 = system: HL-60
Hs-578T = system: Hs-578T
KM12 = system: KM12
MDA-N = system: MDA-N
Malme-3M = system: Malme-3M
NCI-H522 = system: NCI-H522
PC-3 = system: PC-3
RXF 393 = system: RXF 393
SF-268 = system: SF-268
SK-MEL-28 = system: SK-MEL-28
SNB-19 = system: SNB-19
SNB-75 = system: SNB-75
SR = system: SR
TK-10 = system: TK-10
M14 = system: M14
SK-OV-3 = system: SK-OV-3
HOP-92 = system: HOP-92

| Structure (SMILES) | GI50 (CAKI-1) | GI50 (HCC 2998) | GI50 (HCT-15) | GI50 (HL-60) | GI50 (Hs-578T) | GI50 (KM12) | GI50 (MDA-N) | GI50 (Malme-3M) | GI50 (NCI-H522) | GI50 (PC-3) | GI50 (RXF 393) | GI50 (SF-268) | GI50 (SK-MEL-28) | GI50 (SNB-19) | GI50 (SNB-75) | GI50 (SR) | GI50 (TK-10) | GI50 (M14) | GI50 (SK-OV-3) | GI50 (HOP-92) |
| --- | --- | --- | --- | --- | --- | --- | --- | --- | --- | --- | --- | --- | --- | --- | --- | --- | --- | --- | --- | --- |
| Cc1nc2ccc(C(F)(F)F)cc2nc1NCc1ccc(Cl)c(Cl)c1 | 18.8 µM (inactive) | 10.5 µM (inactive) | 12.7 µM | 16.7 µM (inactive) | 23.6 µM (inactive) | 14.2 µM (inactive) | 17.3 µM (inactive) | 17.2 µM (inactive) | 14.8 µM (inactive) | 12.9 µM (inactive) | 12.5 µM (inactive) | 16 µM (inactive) | 18.4 µM (inactive) | 18.4 µM (inactive) | 12.9 µM (inactive) | 14.8 µM (inactive) | < 0.01 µM (active) |  |  |  |
| N#CC1=C(N)N(c2ccccc2)C(c2ccccc2)C1(C#N)C#N (centres undefined) | 20.9 µM (inactive) | 16.4 µM (inactive) | 20.6 µM | 17 µM (inactive) | 30 µM (inactive) | 14.5 µM (inactive) | 19.3 µM (inactive) | 17.6 µM (inactive) | 16.3 µM (inactive) | 17.7 µM (inactive) | 15 µM (inactive) | 22.6 µM (inactive) | 16.7 µM (inactive) | 18.4 µM (inactive) | 15.3 µM (inactive) | 17.1 µM (inactive) | 16.5 µM (inactive) | 21 µM (inactive) | 24.9 µM (inactive) |  |
| Nc1ncnc2c1ncn2[C@@H]1C[C@H](NO)[C@@H](O)[C@H]1O |  | > 100 µM (inactive) | 16.4 µM |  | > 100 µM (inactive) | 9.25 µM (inactive) | > 100 µM (inactive) | > 100 µM (inactive) | > 100 µM (inactive) | > 100 µM (inactive) | > 100 µM (inactive) | > 100 µM (inactive) | > 100 µM (inactive) | > 100 µM (inactive) | > 100 µM (inactive) | 3.55 µM (inactive) | > 100 µM (inactive) | > 100 µM (inactive) | > 100 µM (inactive) | > 100 µM (inactive) |
| Cc1ccc(C(=O)OC[C@H]2CC[C@@H](n3cc(N(C)C4CCCCC4)c(=O)[nH]c3=O)O2)cc1 | 31.4 µM (inactive) | > 100 µM (inactive) | 24.5 µM | 27.9 µM (inactive) | 35.8 µM (inactive) | 19.6 µM (inactive) | 23.7 µM (inactive) | 24.7 µM (inactive) | 24.3 µM (inactive) | 29.4 µM (inactive) | 16.7 µM (inactive) | 28 µM (inactive) | 53.1 µM (inactive) | 19.3 µM (inactive) |  | 95.7 µM (inactive) | 30 µM (inactive) | 11 µM (inactive) | 8.28 µM (inactive) |  |
| CC(C)OC(=O)[C@@H]1OC(C)(C)O[C@H]1C(=O)OC(C)C | > 100 µM (inactive) | > 100 µM (inactive) | > 100 µM |  | > 100 µM (inactive) | > 100 µM (inactive) | > 100 µM (inactive) | > 100 µM (inactive) | > 100 µM (inactive) | > 100 µM (inactive) | > 100 µM (inactive) | > 100 µM (inactive) |  | > 100 µM (inactive) | > 100 µM (inactive) | > 100 µM (inactive) | > 100 µM (inactive) |  | > 100 µM (inactive) | > 100 µM (inactive) |
| O=C(/C=C/c1ccc(O)c(O)c1)NC(COC(=O)/C=C/c1ccc(O)c(O)c1)C(=O)O (centres undefined) | > 100 µM (inactive) | > 100 µM (inactive) | > 100 µM |  | > 100 µM (inactive) | > 100 µM (inactive) | > 100 µM (inactive) | > 100 µM (inactive) | > 100 µM (inactive) | > 100 µM (inactive) | > 100 µM (inactive) | > 100 µM (inactive) | > 100 µM (inactive) | > 100 µM (inactive) | > 100 µM (inactive) | > 100 µM (inactive) | > 100 µM (inactive) | > 100 µM (inactive) | > 100 µM (inactive) | > 100 µM (inactive) |
| COC(=O)CCC1=NCC(C)(C)O1 | > 10 µM (inactive) | > 10 µM (inactive) | > 10 µM |  | > 10 µM (inactive) | > 10 µM (inactive) | > 10 µM (inactive) | > 10 µM (inactive) | > 10 µM (inactive) | > 10 µM (inactive) | > 10 µM (inactive) | > 10 µM (inactive) | > 10 µM (inactive) | > 10 µM (inactive) | 2.79 µM (inactive) | > 10 µM (inactive) | > 10 µM (inactive) | > 10 µM (inactive) | > 10 µM (inactive) |  |
| COC(=O)CCC(=O)c1ccc2c(c1)CC1(Cc3ccccc3C1)C2 |  | 55.8 µM (inactive) |  |  | > 100 µM (inactive) | > 100 µM (inactive) | 49.1 µM (inactive) | 80.5 µM (inactive) | 33.4 µM (inactive) | 41 µM (inactive) | > 100 µM (inactive) |  |  |  |  | 14.7 µM (inactive) | 78.7 µM (inactive) | > 100 µM (inactive) | > 100 µM (inactive) | 31.3 µM (inactive) |
| O=[N+]([O-])c1cc([N+](=O)[O-])c(Nn2c3ccccc3c3ccccc32)c([N+](=O)[O-])c1 |  | 2.74 µM (inactive) | 2.58 µM | 3.51 µM (inactive) | 2.46 µM (inactive) | 0.622 µM (active) | 2.38 µM (inactive) | 1.42 µM (inactive) | 0.403 µM (active) | 1.25 µM (inactive) |  | 2.94 µM (inactive) | 3.3 µM (inactive) | 3.04 µM (inactive) |  | 0.94 µM (active) | 2.2 µM (inactive) | 2.17 µM (inactive) |  | 0.346 µM (active) |
| CC(NC(=N)N)C(=O)O (centres undefined) | > 100 µM (inactive) | > 100 µM (inactive) | > 100 µM |  | > 100 µM (inactive) | > 100 µM (inactive) | > 100 µM (inactive) | > 100 µM (inactive) | > 100 µM (inactive) | > 100 µM (inactive) | > 100 µM (inactive) | > 100 µM (inactive) | > 100 µM (inactive) | > 100 µM (inactive) | > 100 µM (inactive) | > 100 µM (inactive) | > 100 µM (inactive) | > 100 µM (inactive) | > 100 µM (inactive) |  |
| CCN1C(=O)c2ccccc2C1(O)c1ccc(Cl)cc1 (centres undefined) | > 100 µM (inactive) | > 100 µM (inactive) | > 100 µM | 30 µM (inactive) | > 100 µM (inactive) | 46 µM (inactive) | > 100 µM (inactive) |  |  | 24.7 µM (inactive) |  | 79.8 µM (inactive) | 94 µM (inactive) | 20.7 µM (inactive) | > 10 µM (inactive) | 41.2 µM (inactive) | 94.4 µM (inactive) | 59.4 µM (inactive) | 24.4 µM (inactive) | > 100 µM (inactive) |
| O=C(O)Cc1cccnc1 | > 100 µM (inactive) | > 100 µM (inactive) | > 100 µM |  | > 100 µM (inactive) | > 100 µM (inactive) | > 100 µM (inactive) | > 100 µM (inactive) | > 100 µM (inactive) | > 100 µM (inactive) | > 100 µM (inactive) | > 100 µM (inactive) | > 100 µM (inactive) | > 100 µM (inactive) | > 100 µM (inactive) | > 100 µM (inactive) | > 100 µM (inactive) | > 100 µM (inactive) | > 100 µM (inactive) | > 100 µM (inactive) |
